Data reported in patent US6881719B2, “β-turn peptidomimetic cyclic compounds” (McGill University, priority 2000, dated 2005).

Assays:
[1] = target: T1, NIH3T3 fibroblasts expressing TrkA (Homo sapiens, UniProt P04629); test: Cell survival (MTT), NIH-TrkA; type: cell-based; details: for NIH-TrkA % Protection: 72 hours;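 for NIH-TrkA % Protection: 100% equals survival with optimal NGF at 1 nM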
T1 construct: expressed in transfected cells; host or cells: NIH3T3 fibroblasts
Description: The 4-3.6 cells are B104 cells stably transfected with human trkA cDNA, and express equal levels of p75 and TrkA (TrkA+ p75+). For screening agents that activate or antagonize TrkC receptors, NIH3T3 fibroblasts were stably transfected with human TrkC cDNA. […] For screening agents that activate or antagonize TrkA receptors, NIH3T3 fibroblasts were stably transfected with human TrkA cDNA.
(§1) Cell lines: 5,000 cells/well in protein-free media (PFHM-II, GIBCO, Toronto) containing 0.2% bovine serum albumin (BSA) (Crystalline fraction V, Sigma, St. Louis, Mo.) were seeded in 96 well plates (Falcon, Mississauga, Ontario). The cultures were untreated, or treated with the indicated test or control ligands. Cell viability was quantitated using the MTT assay after 56-72 hours of culture. […] The OD of untreated cells were subtracted.

[2] = system: wild type HEK293 cells; test: Cell survival control, wild type HEK293 cells; type: cell-based
Procedure: as §1, with “subtracted. The higher optical density of untreated primary cultures is likely due to cellular heterogeneity and to endogenous production of limiting amounts of growth factors.” for “subtracted.”

T1 sequence (P04629 33-796): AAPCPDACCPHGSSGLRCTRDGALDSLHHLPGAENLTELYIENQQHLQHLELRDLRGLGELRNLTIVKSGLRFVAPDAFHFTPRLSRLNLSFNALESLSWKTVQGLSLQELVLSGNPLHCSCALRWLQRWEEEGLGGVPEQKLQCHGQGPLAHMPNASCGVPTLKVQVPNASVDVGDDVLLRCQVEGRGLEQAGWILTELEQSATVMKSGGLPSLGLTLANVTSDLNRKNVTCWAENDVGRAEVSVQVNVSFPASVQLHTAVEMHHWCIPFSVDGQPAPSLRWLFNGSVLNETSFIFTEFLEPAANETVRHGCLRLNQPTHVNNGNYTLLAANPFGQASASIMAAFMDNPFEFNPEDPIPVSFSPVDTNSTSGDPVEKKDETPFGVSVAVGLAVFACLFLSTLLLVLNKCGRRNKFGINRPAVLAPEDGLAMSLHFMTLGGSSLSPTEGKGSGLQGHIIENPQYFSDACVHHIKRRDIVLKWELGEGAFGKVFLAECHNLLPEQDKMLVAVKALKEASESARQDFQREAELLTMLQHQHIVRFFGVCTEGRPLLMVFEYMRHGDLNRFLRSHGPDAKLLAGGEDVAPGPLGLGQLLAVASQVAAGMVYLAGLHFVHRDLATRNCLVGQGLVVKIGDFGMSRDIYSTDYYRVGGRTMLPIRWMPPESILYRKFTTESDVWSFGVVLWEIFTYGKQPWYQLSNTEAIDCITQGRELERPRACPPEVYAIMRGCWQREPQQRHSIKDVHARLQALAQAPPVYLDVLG

SMILES: NCCCC[C@@H]1NC(=O)[C@H](CCC(=O)O)NC(=O)c2cc([N+](=O)[O-])ccc2OCCC(C(=O)NCC(=O)O)NC1=O (stereo partly shown) [D3, EKHse-G-OH]
- enhancement of NGF protection ([1]; NIH3T3 cells stably transfected with TrkA cDNA): enhanced NGF protection
- NIH-TrkA % Protection ([1]; agent 10 μM + 10 pM NGF): 51 ± 5%
- NIH-TrkA % Protection ([1]; agent 10 μM alone): 8 ± 4%
- protection from apoptosis [2]: neither D3 nor NGF protected
